US20120328602A1, “COMPOSITIONS AND METHODS FOR TREATING CONDITIONS ASSOCIATED WITH CERAMIDE BIOSYNTHESIS” (priority 2007, published 2012)
Where two headings read alike, the source gives them in different places.

How the values were obtained:
[1] = system: mice; assay: hot plate, morphine-induced antinociceptive tolerance (Examples 3-5); format: in vivo, Male CD-1 mice; conditions: for development of tolerance, dose-dependence: co-administered with morphine, FB1 0.1-1 mg/kg/d, myriocin 0.1-0.4 mg/kg/d, D609 10-40 mg/kg/d; for development of tolerance, dose-dependence / hot plate latencies following s.c. saline / difference in responses to acute morphine (0.3-3 mg/kg), drug vs vehicle: n=10; for hot plate latencies following s.c. saline: day five, highest dose of drug, no morphine; for difference in responses to acute morphine (0.3-3 mg/kg), drug vs vehicle: highest dose over five days: FB1 1 mg/kg/d, myriocin 0.4 mg/kg/d, D609 40 mg/kg/d; for antinociceptive effects when tested alone: highest dose; for % MPE: tolerant mice, single i.p. dose fifteen minutes before acute morphine 3 mg/kg: FB1 1 mg/kg, myriocin 0.4 mg/kg, D609 40 mg/kg, n=6
Procedure: Nociceptive thresholds were determined by measuring latencies (in seconds) of mice placed in a transparent glass cylinder on a hot plate (Ugo Basile, Italy) maintained at 52° C. Determination of antinociception was assessed between 7 and 10:00 A.M. All injections were given intra-peritoneally (i.p.) or subcutaneously (s.c.) in a volume of 0.1 and 0.3 ml, respectively, at approximately 7 A.M. and 4 P.M. Responses indicative of nociception included intermittent lifting and/or licking of the hindpaws or escape behavior. […] Results were expressed as percentage of maximum possible antinociceptive effect, which was calculated as follows: (response latency−baseline latency)/(cut-off latency−baseline latency)×100. A cut-off latency of twenty seconds was employed to prevent tissue damage. Ten mice per group were used and all experiments were conducted with the experimentors blinded to treatment conditions. […] The following experimental groups were used: […]
Vehicle (V) Group: In this group, mice were injected twice per day for four days with an i.p, injection of saline and a s.c. injection of saline.

[2] = system: mice; assay: Rotarod motor function test; format: in vivo; conditions: myriocin 0.4 mg/kg, FB1 1 mg/kg, D609 40 mg/kg; fifteen, thirty, and sixty minutes after administration; n=4; vs vehicle
Procedure: Mice were trained before experimentation for their ability to remain for one-hundred twenty seconds on a revolving Rotarod apparatus (accelerating units increase from 3.5 to 35 rpm in five minutes). Mice (n=4 per group) were injected with an i.p. injection of the highest dose of FB1 (1 mg/kg), myriocin (0.4 mg/kg), D609 (40 mg/kg) used to block antinociceptive tolerance or its vehicle. Mice (n=4 per group) were tested and examined for motor […] on the Rotarod at fifteen, thirty, and sixty minutes after drug administration as described in the method section. The latency time to fall off the Rotarod was determined. A cut-off time of one-hundred twenty seconds was used.

[3] = system: mice; format: in vivo; conditions: for responses to acute morphine in control groups vs control groups treated with drug: no repeated morphine; for development of antinociceptive tolerance: co-administration with morphine, i.p., FB1 1 mg/kg, myriocin 0.2 mg/kg, D609 40 mg/kg; for antinociceptive effects when tested alone: drug alone (not shown)
[4] = system: ceramide; assay: immunohistochemistry for ceramide in spinal cord (Example 3); conditions: co-administered with morphine; FB1 1 mg/kg/d, myriocin 0.4 mg/kg/d, D609 40 mg/kg/d
[5] = target: T1, acid sphingomyelinase (ASMase) (Mus musculus, UniProt Q04519); assay: sphingomyelinase activity in spinal cord tissues, acid isoforms (Amplex Red kit); format: in vivo, mice; conditions: D609 40 mg/kg/d co-administered with morphine
T1 construct: spinal cord tissues were homogenized in buffers for each specific assay; from tissue; host or cells: mouse spinal cord homogenate (Na acetate pH 5.0 lysis buffer)
T1 sequence (Q04519 45-627): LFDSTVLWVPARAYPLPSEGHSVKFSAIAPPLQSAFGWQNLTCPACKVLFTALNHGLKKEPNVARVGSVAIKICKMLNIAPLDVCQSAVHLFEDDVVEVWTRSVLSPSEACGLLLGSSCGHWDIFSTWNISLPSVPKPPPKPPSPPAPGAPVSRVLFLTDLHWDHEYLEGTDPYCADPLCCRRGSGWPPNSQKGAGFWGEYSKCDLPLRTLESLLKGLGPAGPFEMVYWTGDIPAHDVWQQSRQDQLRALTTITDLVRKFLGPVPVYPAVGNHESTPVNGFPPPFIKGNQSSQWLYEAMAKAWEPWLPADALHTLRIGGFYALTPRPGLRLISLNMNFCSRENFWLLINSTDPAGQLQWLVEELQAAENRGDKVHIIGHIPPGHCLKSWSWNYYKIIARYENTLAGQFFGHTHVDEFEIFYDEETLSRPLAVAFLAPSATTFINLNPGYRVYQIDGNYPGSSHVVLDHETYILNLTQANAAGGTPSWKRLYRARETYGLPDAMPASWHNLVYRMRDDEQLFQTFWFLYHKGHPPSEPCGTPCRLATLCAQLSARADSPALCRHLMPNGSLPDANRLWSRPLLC
Procedure: Sphingomyelinase activity was measure using Amplex® Red Sphingomyelinase Assay Kit (Molecular Probes, Eugene, Oreg.) following manufacturer's instructions. […] For the acid isoforms, Na acetate (100 mM and pH 5.0) lysis buffer was used. 2 mM EDTA was added to the lysis buffer for detection of the insoluble isoform. For neutral isoform detection, the tissues were homogenized in Hepes (20 mM, pH 7.4) lysis buffer. The kinetics for sphingomyelinase activity was measured in a fluorescence microplate reader for two hours followed by normalization per protein concentration of the sample. Hydrogen peroxide and sphingomyelinase were used as positive controls.

[6] = system: neutral SMase; conditions: at 5 mM GSH; cited from earlier work
[7] = target: T2, acid SMase (Homo sapiens, UniProt P17405); conditions: at 30 μM; cited from earlier work
T2 sequence (P17405 47-631): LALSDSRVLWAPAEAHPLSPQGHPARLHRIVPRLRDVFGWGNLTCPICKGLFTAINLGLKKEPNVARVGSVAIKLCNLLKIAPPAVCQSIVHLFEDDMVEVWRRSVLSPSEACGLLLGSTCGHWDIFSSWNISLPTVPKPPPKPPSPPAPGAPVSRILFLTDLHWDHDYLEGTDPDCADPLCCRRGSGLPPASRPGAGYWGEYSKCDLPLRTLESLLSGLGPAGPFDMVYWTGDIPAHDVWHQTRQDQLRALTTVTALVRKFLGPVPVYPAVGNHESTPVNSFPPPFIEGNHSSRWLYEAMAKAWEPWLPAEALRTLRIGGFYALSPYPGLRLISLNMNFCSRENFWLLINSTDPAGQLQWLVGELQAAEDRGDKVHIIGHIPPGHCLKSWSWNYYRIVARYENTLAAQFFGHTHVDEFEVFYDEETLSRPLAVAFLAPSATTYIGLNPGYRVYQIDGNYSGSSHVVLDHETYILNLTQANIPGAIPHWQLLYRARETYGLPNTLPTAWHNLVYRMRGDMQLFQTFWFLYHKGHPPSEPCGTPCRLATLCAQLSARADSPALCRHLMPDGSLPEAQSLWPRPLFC

[8] = system: serine palmitoyl transferase (SPT); assay: serine palmitoyl transferase (SPT) activity; format: in vivo, mice; conditions: co-administration of morphine with myriocin 0.4 mg/kg/d, n=10
Procedure: SPT activity was determined by measuring the incorporation of [^3H] serine into 3-ketosphinganine following the method previously described (Williams et al., 1984). The results were normalized by the samples' protein concentration.

S=C([S-])OC1CC2CC1C1CCCC21.[K+] (stereo not drawn) [D609, tricyclodecan-9-xanthogenate]
development of tolerance, dose-dependence [1]: blocked in a dose-dependent manner
hot plate latencies following s.c. saline [1]: six and seven
difference in responses to acute morphine (0.3-3 mg/kg), drug vs vehicle [1]: statistically insignificant
antinociceptive effects when tested alone [1]: none of FB1, myriocin, or D609 had antinociceptive effects
% MPE [1]: 11±2%
Rotarod motor function deficits [2]: did not show signs of Rotarod deficits
responses to acute morphine in control groups vs control groups treated with drug [3]: similar
development of antinociceptive tolerance [3]: blocked antinociceptive tolerance
antinociceptive effects when tested alone [3]: no antinociceptive effects
ceramide immunostaining [4]: blocked
increased activity of ASMase [5]: blocked the increased activity of ASMase

N[C@@H](CCC(=O)N[C@@H](CS)C(=O)NCC(=O)O)C(=O)O [Glutathione]
inhibition of neutral SMase [6]: greater than 95%

COc1ccc(CCN(C)CCCOc2ccc(S(=O)(=O)c3c(C(C)C)cn4ccccc34)cc2)cc1OC [SR33557]
inhibition of acid SMase [7]: 72%

CCCCCCC(=O)CCCCCC/C=C/C[C@@H](O)[C@H](O)[C@@](N)(CO)C(=O)O [myriocin]
development of tolerance, dose-dependence [1]: blocked
hot plate latencies following s.c. saline [1]: six and seven
difference in responses to acute morphine (0.3-3 mg/kg), drug vs vehicle [1]: statistically insignificant
antinociceptive effects when tested alone [1]: none of FB1, myriocin, or D609 had antinociceptive effects
% MPE [1]: 13±2%
Rotarod motor function deficits [2]: did not show signs of Rotarod deficits
responses to acute morphine in control groups vs control groups treated with drug [3]: similar
development of antinociceptive tolerance [3]: blocked antinociceptive tolerance
antinociceptive effects when tested alone [3]: no antinociceptive effects
activation of SPT [8]: blocked, as expected, the activation of SPT
ceramide immunostaining [4]: blocked
